Key:
PC3 cells [1] = assay: In vivo efficacy study (tumor growth suppression), PC3 xenograft; conditions: PC3 xenograft mice, after 14 days of dosing at 40 mg/kg bid po
Description: PC3 cells were cultured at 37° C. in a 5% CO2 incubator using Hams F12 K medium. Five million (5×10^6) cells were implanted subcutaneously to the right flank of athymic male mice (Harlan, age: 6-7 weeks, weight: about 20 g). Tumor bearing mice were randomized when the tumor volume reached about 100 mm^3. Ten mice were used per group. Dosage regimen of compounds of formula (I) were scheduled on the basis of the PK, PK-PD and maximum tolerated dose studies. Compounds of formula (I) were formulated using HPCD in PBS, pH 7.4 and dosed orally (dose volume, 10 mL/kg). Solutions of the compounds were prepared immediately before dosing the animals. A vehicle control and a reference compound were included along with test compounds.
The tumor size was measured on alternate days using Vernier® calipers. Assuming tumors to be ellipsoid, the tumor volume was calculated using the formula: V=(D×d^2)/2 […]
Changes in tumor volume (Δ volumes) for each treated (T) and control (C) group were calculated by subtracting the mean tumor volume on the first day of treatment (starting day) from the mean tumor volume on the specified observation day. […]
Percentage tumor growth inhibition was calculated as [100−% T/C]. Percentage body weight change was calculated as [(Body weight on specified observation day−Body weight on starting day)/Body weight on starting day]×100. […]

PC3 cells [2] = assay: XTT assay for cell viability, PC3 cells; format: cell-based, human; conditions: Homo sapiens, PC-3, cell viability
Summary of the method: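 PC3 cells seeded at 1000 cells/well, grown 24 h, then exposed to serial dilutions of compound for 96 h. Viability read by XTT dye at 37° C, absorbance 465 nm. EC50 from sigmoidal dose-response fit.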

[3] = tested on: pS6RP(S235/236), PC3 cells; assay: In-cell Western assay, pS6RP(S235/236) in PC3 cells; format: cell-based, human; conditions: Homo sapiens, PC-3, In-cell Western
Summary of the method: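 Overnight-seeded PC3 cells were treated 2 h with serially diluted compound, then fixed and immunostained with phospho-specific primary antibodies and Eu-labelled secondary. Time-resolved Eu signal read at 615 nm (ex 340 nm), normalised by Hoechst 33258 staining (ex 355/em 460 nm); IC50 from sigmoidal dose-response fit.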

[4] = molecular target: T1, PI3Kα (wild-type), P110/P85α (Homo sapiens, UniProt P42336); assay: PI3 Kinase TR-FRET assay, PI3Kα (wild-type); format: biochemical
T1 construct: made in house; host or cells: SF9 insect cells
T1 sequence (P42336 whole entry): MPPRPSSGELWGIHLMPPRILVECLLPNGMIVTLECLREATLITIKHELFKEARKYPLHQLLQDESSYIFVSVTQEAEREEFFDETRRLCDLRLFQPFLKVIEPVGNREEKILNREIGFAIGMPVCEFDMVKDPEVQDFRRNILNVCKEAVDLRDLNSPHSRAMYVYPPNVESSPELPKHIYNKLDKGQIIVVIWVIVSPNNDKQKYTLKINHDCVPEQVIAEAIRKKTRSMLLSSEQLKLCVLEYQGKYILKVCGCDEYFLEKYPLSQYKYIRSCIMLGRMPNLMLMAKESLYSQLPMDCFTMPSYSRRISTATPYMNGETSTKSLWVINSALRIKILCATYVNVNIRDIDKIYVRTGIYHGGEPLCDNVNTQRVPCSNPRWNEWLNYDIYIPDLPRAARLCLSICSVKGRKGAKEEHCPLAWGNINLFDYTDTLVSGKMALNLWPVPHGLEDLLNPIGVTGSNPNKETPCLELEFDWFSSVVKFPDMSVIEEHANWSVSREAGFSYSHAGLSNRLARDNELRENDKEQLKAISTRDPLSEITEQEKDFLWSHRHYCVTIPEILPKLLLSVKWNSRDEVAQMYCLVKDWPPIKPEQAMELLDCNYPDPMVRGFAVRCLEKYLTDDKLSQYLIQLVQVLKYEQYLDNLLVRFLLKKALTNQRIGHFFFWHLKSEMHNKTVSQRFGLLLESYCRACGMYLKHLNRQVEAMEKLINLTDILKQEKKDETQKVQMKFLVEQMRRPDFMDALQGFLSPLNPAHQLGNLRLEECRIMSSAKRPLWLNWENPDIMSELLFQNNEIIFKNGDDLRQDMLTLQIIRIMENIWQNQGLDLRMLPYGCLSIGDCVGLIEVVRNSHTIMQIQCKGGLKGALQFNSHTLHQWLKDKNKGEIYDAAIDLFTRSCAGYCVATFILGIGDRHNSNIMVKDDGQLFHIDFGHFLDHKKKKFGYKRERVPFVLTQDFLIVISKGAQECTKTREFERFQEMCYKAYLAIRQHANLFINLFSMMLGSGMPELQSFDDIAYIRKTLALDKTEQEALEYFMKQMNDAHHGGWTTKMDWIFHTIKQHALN
T1 sequence (P27986 whole entry partner): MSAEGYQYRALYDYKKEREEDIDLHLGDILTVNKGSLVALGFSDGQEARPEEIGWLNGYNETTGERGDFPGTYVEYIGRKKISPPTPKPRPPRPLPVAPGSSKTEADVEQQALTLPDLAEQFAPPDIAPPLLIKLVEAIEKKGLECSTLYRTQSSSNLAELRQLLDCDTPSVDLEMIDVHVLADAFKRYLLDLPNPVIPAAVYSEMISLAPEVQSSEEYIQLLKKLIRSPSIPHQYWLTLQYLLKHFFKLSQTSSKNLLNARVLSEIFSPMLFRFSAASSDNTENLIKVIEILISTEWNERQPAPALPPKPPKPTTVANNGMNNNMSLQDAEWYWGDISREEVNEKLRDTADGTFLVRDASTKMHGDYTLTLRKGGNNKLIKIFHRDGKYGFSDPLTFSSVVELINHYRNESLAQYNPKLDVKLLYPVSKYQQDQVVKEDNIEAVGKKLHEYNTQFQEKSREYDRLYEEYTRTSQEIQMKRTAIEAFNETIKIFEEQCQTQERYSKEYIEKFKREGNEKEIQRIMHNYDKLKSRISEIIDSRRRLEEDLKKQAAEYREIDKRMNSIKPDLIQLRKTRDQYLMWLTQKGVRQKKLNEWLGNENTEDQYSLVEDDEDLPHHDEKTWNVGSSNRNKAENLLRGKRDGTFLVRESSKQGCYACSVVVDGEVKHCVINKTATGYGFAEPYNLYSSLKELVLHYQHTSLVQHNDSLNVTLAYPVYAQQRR
Summary of the method: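 TR-FRET read-out of PIP3 formation via biotin-PIP3 displacement (665/615 nm ratio) gave IC50 curves. Enzyme: 5 ng wild-type P110/P85α from Sf9 cells, 60 min RT with compound and PIP2 (MgCl2 40 mM, DTT 5 mM), then 30 min RT kinase reaction at 10 μM ATP and 10 μM PIP2.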

mTOR kinase = molecular target: T2, mTOR kinase (Homo sapiens, UniProt P42345); assay: mTOR kinase TR-FRET assay; format: biochemical; conditions: read-out: mTO R
T2 construct: purchased Millipore, USA
Summary of the method: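 TR-FRET read-out (340 nm excitation, 615/665 nm emission) of Thr389 phosphorylation of a ULight-labeled p70 S6K peptide (50 nM) by mTOR, 20 μM ATP, 60 min room temperature after 60 min compound preincubation. Buffer HEPES pH 7.5 with MnCl2, EGTA; IC50 by sigmoidal dose-response.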

PI3 kinase isoform β = PI3 kinase isoform β (Homo sapiens, UniProt P42338); assay: PI3 Kinase TR-FRET assay, isoform β; format: biochemical; conditions: read-out: inhibition of PI3 kinase isoform β, IC50
Chain of PI3 kinase isoform β (P42338 whole entry, the tested form may be a part, canonical isoform): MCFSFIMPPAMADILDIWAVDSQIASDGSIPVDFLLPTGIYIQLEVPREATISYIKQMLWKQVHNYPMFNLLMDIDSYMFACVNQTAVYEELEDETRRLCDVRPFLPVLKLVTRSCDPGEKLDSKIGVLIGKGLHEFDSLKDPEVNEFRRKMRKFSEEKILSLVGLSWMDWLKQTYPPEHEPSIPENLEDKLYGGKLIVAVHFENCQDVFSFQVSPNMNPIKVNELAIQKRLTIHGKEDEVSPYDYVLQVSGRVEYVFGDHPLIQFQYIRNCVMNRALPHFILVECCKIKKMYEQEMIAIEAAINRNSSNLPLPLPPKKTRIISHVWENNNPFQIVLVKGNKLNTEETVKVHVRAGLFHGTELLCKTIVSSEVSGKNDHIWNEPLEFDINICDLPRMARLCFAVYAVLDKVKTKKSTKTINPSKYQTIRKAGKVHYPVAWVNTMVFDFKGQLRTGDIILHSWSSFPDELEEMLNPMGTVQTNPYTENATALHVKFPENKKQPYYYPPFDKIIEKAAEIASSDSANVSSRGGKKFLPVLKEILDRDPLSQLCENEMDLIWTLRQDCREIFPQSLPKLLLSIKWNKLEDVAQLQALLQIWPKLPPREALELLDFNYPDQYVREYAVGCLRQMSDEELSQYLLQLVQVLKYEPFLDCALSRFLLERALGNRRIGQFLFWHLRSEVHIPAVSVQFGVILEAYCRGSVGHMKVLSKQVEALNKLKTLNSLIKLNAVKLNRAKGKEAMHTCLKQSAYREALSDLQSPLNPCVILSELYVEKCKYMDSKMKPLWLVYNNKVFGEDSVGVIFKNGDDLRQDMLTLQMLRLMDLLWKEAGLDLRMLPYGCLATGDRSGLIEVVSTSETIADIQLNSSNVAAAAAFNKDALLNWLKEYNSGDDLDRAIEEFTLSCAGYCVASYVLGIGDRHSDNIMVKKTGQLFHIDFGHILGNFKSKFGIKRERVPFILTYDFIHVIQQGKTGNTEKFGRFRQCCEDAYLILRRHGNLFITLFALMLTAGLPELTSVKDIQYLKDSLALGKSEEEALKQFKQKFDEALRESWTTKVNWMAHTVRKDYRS
Chain of PI3 kinase isoform β (P27986 whole entry partner, the tested form may be a part, canonical isoform): as the sequence (P27986 whole entry partner) above
Description: The ability of compounds of the invention to inhibit PI3K activity was determined in a homogeneous TR-FRET assay using a PI3K assay kit (Millipore, USA; cat #33-016) according to manufacturer's instructions. PI3-Kinases (isoforms α, β, γ and δ) catalyze the phosphorylation of phosphatidylinositol, PIP2 to PIP3 in the presence of ATP and Mg^2+. The PIP3 product is detected by displacement of biotin-PIP3 from an energy transfer complex consisting of Europium labeled anti-GST monoclonal antibody, a GST-tagged PH domain, biotinylated PIP3 and Streptavidin-APC. Excitation of Europium in the complex results in an energy transfer to the APC and a fluorescence emission at 665 nm. The PIP3 product displaces biotin-PIP3 from the complex resulting in a loss of energy transfer and thus a decrease in signal.
To test for the ability of compounds to inhibit the activity of PI3Kα (wild-type), exemplary compounds of formula (I) were dissolved in DMSO and directly distributed into 384-well plates at a volume of 0.5 μL. 14.5 μL of P110/P85α/PIP2 mixture in buffer (obtained from the Millipore kit) containing MgCl2 (40 mM) and DTT (5 mM) was added to compound wells and incubated for 60 min at room temperature. P110/P85α was expressed in SF9 insect cells and purified nickel column extraction. Five ng of wild-type P110/P85α was used in the assay. The kinase reaction was started by the addition of ATP. The assay concentrations of both PIP2 and ATP were 10 μM. The reaction mixture was incubated for 30 min at room temperature and was terminated by the addition of stop mix and detection mix. Fluorescence was measured at 615 and 665 nm upon excitation at 340 nm in a Victor™ V5 fluorometer (Perkin Elmer, USA). The fluorescence emission ratio at 665 to 615 nm, proportional to the kinase activity, was plotted against the compound concentration to generate dose-response curves and IC50 values were determined using GraphPad Prism® 5 software.
The activity of PI3 kinase isoforms β, γ and δ were assayed in a similar manner to the assay protocol described above for PI3Kα, by substituting the appropriate p110/p85 isoform for the p110α/p85α. Compounds of formula (I) caused inhibition of PI3 kinase isoforms β, γ and δ as determined by these assays. For example, the compounds of examples 3, 51, 54, 111, 113, 115, and 253 each caused inhibition of PI3 kinase isoform β with IC50 values <50 nM. The compounds of examples 104, 133, 146 and 152 each caused inhibition of PI3 kinase isoform β with IC50 values <500 nM. The compounds of examples 3, 51, 54, 104, 111, 113, 115, 133, 253, and 152 each caused inhibition of PI3 kinase isoform γ with IC50 values <500 nM. […] The compounds of examples 2, 3, 51, 54, 111, 113, and 253 each caused inhibition of PI3 kinase isoform […] with IC50 values >1 μM.

[5] = tested on: pAKT(5473) (phosphorylated at serine 473), PC3 cells; assay: In-cell Western assay, pAKT(5473) in PC3 cells; format: cell-based; conditions: Homo sapiens, PC-3, In-cell Western, read-out: pAkt-S473
Description: (§1) Cells from human prostate cancer cell line PC3 (American Type Culture Collection (ATCC), Manassas, Va. 20108 USA) were seeded at an optimal density of 22,000 cell/well in 96-well plates containing Ham's F12K medium (90 μL) and incubated overnight. The compound dilutions were carried out in 100% DMSO followed by a dilution in the medium. Test compounds were added in serial dilutions to the wells and incubated for 2 h. The cells were washed and fixed with 4% paraformaldehyde. After incubation at room temperature for 1 h in the dark, blocking was done for 2 h at room temperature. Primary antibodies for phosphorylated (p) AKT(5473) (phosphorylated at serine 473), pAKT(T308) (phosphorylated at threonine 308) and for pS6RP(S235/236) (phosphorylated at serine 235/236) (commercially available from Cell Signaling Technology®, whose protocol was followed for the in-cell western assay, were diluted to the required concentration and added to the corresponding wells followed by overnight incubation at 4° C. Eu-labeled rabbit (PE) (Perkin-Elmer USA catalog #AD0106) secondary antibody was added and incubated for 2 h at room temperature. Delfia® enhancement solution (cat #1244-105, Perkin Elmer USA) was subsequently added to the plate before taking the reading at 615 nm with excitation wavelength of 340 nm, after which 0.5 μg/mL of Hoechst® 33258 dye (Catalog #86140-5, Sigma) was added to the plate and fluorescence emission was read at 460 nm with 355 nm excitation, to evaluate the correction factor. IC50 values were calculated using a sigmoidal dose-response curve fit in GraphPad Prism® v5 software.

[6] = tested on: pAKT(T308) (phosphorylated at threonine 308), PC3 cells; assay: In-cell Western assay, pAKT(T308) in PC3 cells; format: cell-based; conditions: Homo sapiens, PC-3, In-cell Western
Description: as §1

pS6RP in PC3 tumor = assay: In vivo PK/PD study, PC3 tumor bearing mice, pS6RP; conditions: Mus musculus, 50 mg/kg po, at 3 and 8 hours
Description: PC3 cells were cultured at 37° C. in a 5% CO2 incubator using Hams F12 K medium. Ten million (10^7) cells were injected subcutaneously to the right flank region of athymic male mice (Harlan, age: 6-7 weeks, weight: about 20 g). Tumor bearing mice were randomized when the tumor volume reached about 250 mm^3 and three mice were used per each time point. Test compounds of formula (I) were formulated in 40% HPCD in 1×PBS, pH 7.4 and dosed orally at 50 mg/kg single dose (dose volume−10 mL/kg). Plasma and tumor samples were collected at 0 (vehicle control animals), 1, 4 and 24 hours post dosing. Blood was drawn (retro orbital) to a tube containing 0.2% EDTA for plasma collection. The tumor was excised from the mouse and immediately frozen in liquid nitrogen for PD analysis. Tumor and plasma drug concentrations were measured for PK analysis using LC-MS.
Snap frozen tumor samples were pulverized in a mortar (Belart) containing liquid nitrogen and tumor powder was stored at −80° C. until analysis. Pre coated ELISA kits (Cell Signaling Technology; pAKT(T308), CST#7135; pAKT(5473), CST#7134 and pS6RP, CST#7205) were used for PD analysis. Tumor powder was transferred to Eppendorf® tubes and lysis buffer (1 mL) was added to the powder. Protease and phosphatase inhibitors (SIGMA) and phenylmethanesulfonylfluoride (PMSF) were added to tumor powder and mixed by vortexing followed by sonication (15 sec). Samples were kept on an ice bath for 30 min. Supernatant was separated after centrifugation at 10,000 rpm for 20 min at 4° C. Supernatant was re-centrifuged and fresh supernatant was aliquoted to different tubes. Total protein was estimated using a BCA kit (Thermo Scientific) and 50 μg total protein was loaded to each well. ELISA analysis was carried out as per manufacturer's instructions. The detection for pAKT was based on chemiluminescence and pS6RP was based on absorbance. Qualitative assessments of the suppression of pAKT(T308), pAKT(5473), and pS6RP were also carried out by standard Western blot analyses.
For example, the compound of Example 1, at 50 mg/kg po, caused about 50% inhibition of pAkt(5473) at 1 and 4 hours and >50% inhibition of pS6RP at 1, 4 and 24 hours. Also, the compound of Example 2, at 50 mg/kg po, caused about 25-30% inhibition of pAkt(5473) at 4 and 24 hours and >50% inhibition of pS6RP at 1, 4 and 24 hours. The compound of example 51, at 30 mg/kg po, caused >50% inhibition of pS6RP at 2, 4 and 24 hours. Also, the compounds of examples 133, 146, 147, and 228, at 50 mg/kg po, each caused >50% inhibition of pS6RP at 3 and 8 hours.

SMILES | tumor growth inhibition relative to vehicle control group (PC3 cells [1]) | IC50 (PC3 cells [2]) [µM] | IC50 [3] [µM] | IC50 [4] [µM] | IC50 (mTOR kinase) [µM] | IC50 (PI3 kinase isoform β) [µM] | IC50 [5] [µM] | IC50 [6] [µM] | inhibition at 50 mg/kg (pS6RP in PC3 tumor) [%]
CN(C)C(=O)c1ccc(NC(=O)Nc2ccc(-c3nc(N4CCOCC4)c4ncc(-c5cnn(C)c5)cc4n3)cc2F)cc1 [Example 82, 4-(3-(2-fluoro-4-(7-(1-methyl-1H-pyrazol-4-yl)-4-morpholino-pyrido[3,2-d]pyrimidin-2-yl)phenyl)ureido)-N,N-dimethyl-benzamide] | about 60% | 0.201 to 10 | 0.201 to 10 | < 0.05 | < 0.05 | – | – | – | –
CN(C)C(=O)c1ccc(NC(=O)Nc2ccc(-c3nc(N4CCOCC4)c4ncc(-c5cccc(S(C)(=O)=O)c5)cc4n3)cc2F)cc1 [Example 104, 4-(3-(2-fluoro-4-(7-(3-(methylsulfonyl)phenyl)-4-morpholino-pyrido[3,2-d]pyrimidin-2-yl)phenyl)ureido)-N,N-dimethyl-benzamide] | – | 0.201 to 10 | 0.201 to 10 | < 0.05 | < 0.05 | < 0.5 | < 0.1 | – | –
COc1ncc(-c2ccc3c(N4CCOCC4)nc(-c4ccc(NC(=O)Nc5ccc(C(=O)N(C)C)cc5F)cc4)nc3c2)cn1 [Example 147, 3-fluoro-4-(3-(4-(7-(2-methoxypyrimidin-5-yl)-4-morpholino-quinazolin-2-yl)phenyl)ureido)-N,N-dimethyl-benzamide] | – | – | – | 0.05 to 0.2 | < 0.05 | – | < 0.1 | 0.201 to 10 | > 50
CN(C)C(=O)c1ccc(NC(=O)Nc2ccc(-c3nc(N4CCOCC4)c4ccc(-c5ccc(CO)o5)cc4n3)cc2)cc1 [Example 183, 4-(3-(4-(7-(5-(hydroxymethyl)furan-2-yl)-4-morpholino-quinazolin-2-yl)phenyl)ureido)-N,N-dimethyl-benzamide] | about 60% | 0.201 to 10 | 0.201 to 10 | < 0.05 | < 0.05 | – | – | – | –
CN(C)C(=O)c1ccc(NC(=O)Nc2ccc(-c3nc(N4CCOCC4)c4ccc(-c5ccc(CO)o5)cc4n3)cc2)c(F)c1 [Example 228, 3-fluoro-4-(3-(4-(7-(5-(hydroxymethyl)furan-2-yl)-4-morpholino-quinazolin-2-yl)phenyl)ureido)-N,N-dimethyl-benzamide] | – | – | – | < 0.05 | < 0.05 | – | 0.501 to 5 | – | > 50

Reference: US9115092B2, “Substituted quinazoline and pyrido-pyrimidine derivatives” (Asana Biosciences, LLC, priority 2010, dated 2015)
